The text below walks through data of PubChem BioAssay (NCI).

Test systems include UO-31 renal; A549 NSCLC; A498 renal; RXF 393 renal; M14 melanoma; NCI-H226 lung; SNB-19 CNS; TK-10 renal; OVCAR-3 ovarian; NCI-H460 lung.
What all share (assay): NCI-60 cell line screen, 48 h

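Five compound concentrations were applied to cells in 96-well plates for 48 hours; endpoints were derived by simple linear interpolation of the resulting dose-response curve. GI50 is the concentration that inhibits growth by half. TGI denotes the concentration required for complete inhibition of growth.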

On to `COc1ccc(-n2cc(-c3cc(OC)c(OC)c(OC)c3)[nH]c2=S)cc1OC`, for which the GI50 with UO-31 renal, in the assay with A549 NSCLC, with A498 renal, in the assay on RXF 393 renal, with M14 melanoma and in the assay with NCI-H226 lung was above 100 µM throughout. Further, the GI50 in the assay with SNB-19 CNS, in the assay on TK-10 renal, with OVCAR-3 ovarian and in the assay with NCI-H460 lung was above 100 µM each time. Further, the TGI with UO-31 renal, in the assay on A549 NSCLC, with A498 renal, with RXF 393 renal, in the assay with M14 melanoma and in the assay with NCI-H226 lung was above 100 µM throughout. For the same molecule, the TGI with SNB-19 CNS, in the assay with TK-10 renal, in the assay on OVCAR-3 ovarian and with NCI-H460 lung was above 100 µM in each case.
For the molecule `COc1cc([C@@H]2c3cc4c(cc3C(O[C@@H]3O[C@@H]5CO[C@@H](c6cccs6)OC5[C@H](O)[C@H]3O)C3COC(=O)[C@@H]32)OCO4)cc(OC)c1O` (stereo not given in full), the GI50 with UO-31 renal is 0.179 µM; in the assay on A549 NSCLC it was 0.0209 µM; in the assay on A498 renal it was 0.0635 µM; in the assay on RXF 393 renal it was 0.105 µM; with M14 melanoma, 0.0732 µM; with NCI-H226 lung, 0.0223 µM. Also, the GI50 was 0.0278 µM in the assay on SNB-19 CNS, 0.118 µM in the assay with TK-10 renal, 0.248 µM in the assay with OVCAR-3 ovarian and below 0.005 µM with NCI-H460 lung. Further, the TGI is 1.14 µM in the assay with UO-31 renal; 0.822 µM in the assay on A549 NSCLC; 0.551 µM in the assay on A498 renal; 0.534 µM with RXF 393 renal; 0.888 µM in the assay on M14 melanoma; 0.149 µM with NCI-H226 lung. Moreover, the TGI in the assay with SNB-19 CNS was 17 µM; with TK-10 renal, 0.799 µM; in the assay with OVCAR-3 ovarian, 1.19 µM; in the assay on NCI-H460 lung, 0.278 µM.
Take `CC(=O)c1ccc(NC(=O)/C(Cc2ccccn2)=N/NC(=O)C[N+](C)(C)C)cc1`: the TGI in the assay with UO-31 renal, in the assay with A549 NSCLC, in the assay on A498 renal, in the assay on RXF 393 renal, with M14 melanoma and in the assay on NCI-H226 lung was above 100 µM each time. Besides, the TGI in the assay on SNB-19 CNS, in the assay with TK-10 renal, with OVCAR-3 ovarian and in the assay with NCI-H460 lung was above 100 µM each time.
Regarding `NC(N)=NC(N)=Nc1cc2ccccc2c2ccccc12`, the GI50 in the assay with UO-31 renal was 5.05 µM; in the assay on A549 NSCLC it was 4.58 µM; in the assay on A498 renal it was 1.39 µM; in the assay with RXF 393 renal it was 10.6 µM; with M14 melanoma it was 10.6 µM; with NCI-H226 lung it was 10.5 µM. Further, the GI50 in the assay on SNB-19 CNS was 7.69 µM; in the assay with TK-10 renal it was 6.08 µM; in the assay with OVCAR-3 ovarian, 12.3 µM; in the assay with NCI-H460 lung, 5.13 µM. Moreover, the TGI in the assay on UO-31 renal stood at 19.9 µM; with A549 NSCLC it was 18.1 µM; in the assay with A498 renal it was 10.1 µM; with RXF 393 renal, 24.1 µM; in the assay with M14 melanoma, 24.7 µM; with NCI-H226 lung, 25.5 µM. In addition, the TGI in the assay with SNB-19 CNS turned out to be 21.6 µM; in the assay with TK-10 renal, 20.5 µM; in the assay with OVCAR-3 ovarian, 26.6 µM; with NCI-H460 lung, 19.4 µM.
Take `Cn1cc(C2=C(c3cn(C)c4c(N)cccc34)C(=O)NC2=O)c2ccccc21`: the GI50 in the assay on UO-31 renal is 1.1 µM; in the assay with A549 NSCLC it was 1.39 µM; with A498 renal it was 0.895 µM; in the assay on RXF 393 renal, 1.03 µM; with M14 melanoma, 2.15 µM; with NCI-H226 lung it was 3.28 µM. In addition, the GI50 is 4.34 µM with SNB-19 CNS, 4.28 µM in the assay with TK-10 renal, 0.507 µM with OVCAR-3 ovarian and 1.08 µM in the assay on NCI-H460 lung. The TGI in the assay on UO-31 renal is 10.5 µM; with A549 NSCLC, above 25 µM; in the assay on A498 renal, 4.29 µM; in the assay on RXF 393 renal, 6.85 µM; in the assay on M14 melanoma it was above 25 µM; in the assay with NCI-H226 lung it was above 22.1 µM. For the same molecule, the TGI in the assay on SNB-19 CNS was above 25 µM; in the assay with TK-10 renal, 18.3 µM; in the assay on OVCAR-3 ovarian it was 1.45 µM; with NCI-H460 lung, above 25 µM.
For the molecule `CCCCNC(=O)NS(=O)(=O)c1ccc(N2N=C(c3ccc(C)cc3C)CC2c2ccc(N(C)C)cc2)cc1` (stereo not given), the GI50 in the assay on UO-31 renal was 4.57 µM; in the assay on A549 NSCLC, 3.2 µM; in the assay on A498 renal, 3.9 µM; in the assay with RXF 393 renal, 4.06 µM; with M14 melanoma it was 4.06 µM; in the assay with NCI-H226 lung it was 4.54 µM. Also, the GI50 was 4.59 µM in the assay with SNB-19 CNS, 5.64 µM with TK-10 renal, 2.5 µM in the assay with OVCAR-3 ovarian and 3.33 µM with NCI-H460 lung. The TGI in the assay with UO-31 renal is above 100 µM; in the assay on A549 NSCLC, above 100 µM; in the assay with A498 renal, 25.9 µM; with RXF 393 renal, 15.7 µM; with M14 melanoma, above 100 µM; with NCI-H226 lung, 21.8 µM. Moreover, the TGI was above 100 µM in the assay on SNB-19 CNS, above 100 µM with TK-10 renal, 5.72 µM in the assay with OVCAR-3 ovarian and 15.9 µM with NCI-H460 lung.
Consider `CC(=O)[O][Hg][c]1c(C)c(C)c(C)c(C)c1C`, for which the GI50 was 3.45 µM in the assay with UO-31 renal; 10.7 µM in the assay with A549 NSCLC; 2.68 µM in the assay with A498 renal; 0.712 µM with RXF 393 renal; 1.35 µM with M14 melanoma; 3.65 µM in the assay with NCI-H226 lung. Also, the GI50 in the assay on SNB-19 CNS was 1.48 µM; with TK-10 renal, 2.03 µM; in the assay with OVCAR-3 ovarian, 1.82 µM; in the assay with NCI-H460 lung, 0.747 µM. Besides, the TGI with UO-31 renal was 7.74 µM; with A549 NSCLC it was 27.8 µM; in the assay with A498 renal it was 5.4 µM; in the assay with RXF 393 renal it was 1.93 µM; in the assay with M14 melanoma, 2.65 µM; in the assay on NCI-H226 lung it was 10 µM. Moreover, the TGI in the assay on SNB-19 CNS was determined as 2.89 µM; in the assay with TK-10 renal it was 3.72 µM; in the assay with OVCAR-3 ovarian it was 3.31 µM; in the assay with NCI-H460 lung, 2.26 µM.
